Results: US6878388B1, “Vanadium compounds for treating proliferative cell disorders” (Parker Hughes Institute, priority 2000, dated 2005)
Where two headings read alike, the source gives them in different places.

What was measured:
[1] = tested on: U87 human glioblastoma cells; experiment: MTT cytotoxicity assay, U87; type: cell-based; details: 48 h incubation, 3 independent experiments, read-out: IC50 (mean ± SE)
Method: (§1) Human brain tumor cells lines U87 MG (Cat.# HTB-14), U118 MG (Cat. # HTB-15), U138 (Cat # HTB-16), U373 MG (CAT. # HTB-17), and T98G (Cat. # CRL-1690) and breast cancer cell lines BT-20 (Cat # HTB-19), MDA-MB-231 (Cat # HTB-26), MDA-MB-361 (Cat # HTB-27), and MCF-7 (Cat # HTB-22) were obtained from American Type Culture Collection (ATCC, Rockville, Md.) and maintained as continuous cell lines in Dulbecco's modified Eagles's medium (U87, U118, U138, U373, T98 and BT-20) or Leibovitz's L-15 medium (MDA-MB-231 and MDA-MB-361). All media were supplemented with 10% fetal calf serum (FCS), 4 mM glutamine, 100 U/ml penicillin G and […] streptomycin sulfate. All tissue culture reagents were obtained from Life Technologies Inc. (GIBCO-BRL, Gaithersburg, Md.).
(§2) The cytotoxicity of [VO(SO4)(Me2-Phen)2] against human cancer cell lines was analyzed using the MTT (3-[4,5-dimethylthiazol-2-yl]-2,5-diphenyl tetrazolium bromide) assay (Boehringer Mannheim Corp., Indianapolis, Ind.) as described previously (Narla et al., Clin Cancer Res., 4: 1405-1414, 1998). […] The absorbance at 540 nm (a reference wavelength of 690 nm was used) of the solution in each well was measured using a microplate reader (Labsystems). The percent survival and the IC50 values were calculated using Graphpad Prism v2.0 (Graphpad Software, Inc., San Diego, Calif.) as described previously (Narla et al., Supra). […]

U87 glioblastoma cells = experiment: In vitro adhesion assay to ECM proteins, U87; type: cell-based, human; details: 16 h pretreatment, mean ± SE of 3 experiments
Method: In vitro adhesion assays were used to evaluate the effects of [VO(SO4)(Me2-Phen)2] on the adhesive properties of U87 and MDA-MD-231 cells as described previously (Narla et al., Clin Cancer Res, 4: 2463-2471, 1998). The plates for the adhesion assays were pre-coated with the extracellular matrix (ECM) proteins laminin, fibronectin, vitronectin and type IV collagen (each at a final concentration of 1 μg/ml in PBS) overnight at 4° C. and dried. Exponentially-growing cells (as described in the previous Example) were incubated with [VO(SO4)(Me2-Phen)2] at concentrations ranging from 0.5 μM to 25 μM for 16 hours in a humidified 5% CO2 atmosphere. The cells were then detached from the flasks with 0.05% trypsin (Life Technologies), resuspended in medium, incubated at 37° C. for 2 hours to allow them to recover from the trypsinization stress and examined for their ability to adhere to the plates precoated with ECM proteins. Cells were centrifuged, washed twice with serum-free medium, counted and resuspended in serum-free medium at a final concentration of 2.5×10^5 cells/ml. The cell suspension was added to each well in aliquots of 100 μl and the cells were allowed to adhere for one hour at 37° C. in a humidified 5% CO2atmosphere. The non-adherent cells were removed by gently washing the cells with PBS. The adherent fraction was quantitated using MTT assays as previously described (Narla, Supra).
U87 glioblastoma and MDA-MD-231 breast cancer cells were preincubated with various concentrations of [VO(SO4)(Me2-Phen)2] and processed for adhesion assays. [VO(SO4)(Me2-Phen)2] inhibited adhesion of the U87 and MDA-MB-231 cells to extracellular matrix (ECM) proteins, Pretreatment of cells with [VO(SO4)(Me2-Phen)2] inhibited the adhesion of U87 glioblastoma and MDA-MB-231 breast cancer cells to laminin-, fibronectin-, vitronectin- and collagen-coated plates. The inhibition of glioblastoma cell adhesion was concentration-dependent with mean (±SE) IC50 values from 3 independent experiments shown in the table below.

[2] = tested on: T98 human glioblastoma cells; experiment: MTT cytotoxicity assay, T98; type: cell-based; details: 48 h incubation, 3 independent experiments, read-out: IC50 (mean ± SE)
Method: as §1, §2

[3] = tested on: U118 human glioblastoma cells; experiment: MTT cytotoxicity assay, U118; type: cell-based; details: 48 h incubation, 3 independent experiments, read-out: IC50 (mean ± SE)
Method: as §1, §2

[4] = tested on: BT-20 breast cancer cells; experiment: MTT cytotoxicity assay, BT-20; type: cell-based, human; details: BT-20 cells, 48 h incubation, 3 independent experiments, read-out: IC50 (mean ± SE)
Method: as §1, §2

[5] = tested on: U138 human glioblastoma cells; experiment: MTT cytotoxicity assay, U138; type: cell-based; details: 48 h incubation, 3 independent experiments, read-out: IC50 (mean ± SE)
Method: as §1, §2

[6] = tested on: MDA-MB-361 breast cancer cells; experiment: MTT cytotoxicity assay, MDA-MB-361; type: cell-based, human; details: MDA-MB-361 cells, 48 h incubation, 3 independent experiments, read-out: IC50 (mean ± SE)
Method: as §1, §2

Cc1ccnc2c1ccc1c(C)ccnc12.Cc1ccnc2c1ccc1c(C)ccnc12.O=S(=O)([O-])[O-].[O]=[V+2] [[VO(SO4)(Me2-Phen)2], bis(4,7-dimethyl-1,10-phenanthroline) sulfatooxovanadium (IV)]
IC50 [1]: 2.1 ± 0.6 µM | IC50 (U87 glioblastoma cells; U87, fibronectin-coated plates, read-out: IC50 inhibition of adhesion to fibronectin): 1.3 µM | IC50 (U87 glioblastoma cells; U87, laminin-coated plates, read-out: IC50 inhibition of adhesion to laminin): 1.4 ± 0.1 µM | IC50 (U87 glioblastoma cells; U87, type IV collagen-coated plates, read-out: IC50 inhibition of adhesion to collagen): 1.2 µM | IC50 (U87 glioblastoma cells; U87, vitronectin-coated plates, read-out: IC50 inhibition of adhesion to vitronectin): 1.2 ± 0.1 µM | IC50 [2]: 3.9 ± 0.5 µM | IC50 [3]: 0.82 ± 0.1 µM | IC50 [4]: 1.6 ± 0.7 µM | IC50 [5]: 2.7 ± 0.4 µM | IC50 [6]: 1.9 ± 0.5 µM
